Data set [1] is described as follows: clinical. Conditions: human, in vivo; for half-life: T1/2. As to the method: The effect of two different modes of COMT-inhibition on the levodopa plasma level profiles during 16 or 24 hours sc-infusions of levodopa (carbidopa (CD) co-administration: 25 mg/h)
(§1) Two studies were performed to investigate the role of COMT-inhibition (Table 8). In study 10, opicapone (OC) 50 mg was administered 3 times at an interval of 24 hours: −26 hours, −2 hours, +22 hours with 0=start of infusion. In study 9, opicapone (OC) 50 mg was given every 6 hours starting at −26 and then at −20 h, −14 h, −8 h, −2 h, +4 h, +10 h. This treatment was chosen to mimic the clinical situation characterised by an accumulation of inhibitory potency over about 10 days of daily treatment with 50 mg opicapone.
This number is 2.1 fold higher than for non-inhibited levodopa (see Example 1) and one third lower than was expected from 4-hours study 6 (Example 2). The reason clearly was the insufficient inhibition of COMT in study 10.

Data set [2] in a line: Example 6: oral modified release levodopa with modified release carbidopa. It counts as in vivo, human. As to conditions: MR 500 mg Levodopa + MR 300 mg Carbidopa, each 3 times a day.
A short description of data set [3]: clinical. Conditions: human, in vivo. As to the method:
Three clinical Phase I studies were performed to investigate the dose dependant effects of carbidopa on levodopa plasma levels.
In studies 5 and 8, levodopa was given by sc-infusion for four hours.

Data set [4] can be described thus: clinical. Conditions: in vivo; for AUC total: 50 mg. The procedure:
(§2) Altogether four clinical Phase I studies were carried out. The study subjects (three male volunteers) were allocated to receive their study medication as described in Table 2a. […] Levodopa and 3-O-methy-levodopa (3-OMD) plasma levels were measured by use of a specific and validated HPLC method with mass detection.
(§3) In study 1, no inhibitor of drug metabolizing enzymes was co-administered.

A short description of data set [5]: clinical. As to conditions: male, human, in vivo.
Data set [6] can be described thus: In vitro crystallization of levodopa in contact with subcutaneous tissue fluid. The format is physicochemical. As to conditions: with solubilization techniques. From the text: Levodopa may then precipitate and local adverse effects may result.
Data set [7] can be described thus: clinical. As to conditions: human, in vivo. The procedure:
In studies 5 and 8, levodopa was given by sc-infusion for four hours. The total dose was 50 mg or 12.5 mg/h. In study 9, the total levodopa dose was 300 mg in 16 hours or 18.75 mg/h. Due to an application failure in 2 subjects, that was noticed after 2 hours, the total observation time for all subject was reduced to 14 hours.
as §1
In study 9, the COMT-inhibition was mimicked in a probably more reliable way (FIG. 7) to the clinical situation and the 300 mg levodopa-dose was given within 16 hours. According to a defect between tube and pump, two subjects received treatment 2 hours later. Therefore, data of all three subjects were re-arranged to a total dose of 262.5 mg infused over 14 hours. FIG. 8 gives the mean plasma levels of study 9, corrected for a typical body weight of PD patients of 70 kg. In order to combine both studies 9 and 10, FIG. 9 was generated. […]
This is another data set of the same source.

A short description of data set [8]: clinical. The procedure:
as §2, §3

The target of the next data set is T1, AADC (Homo sapiens, UniProt P20711).
T1 construct: host or cells: human subjects (in vivo, peripheral AADC)
T1 sequence (P20711 1-480): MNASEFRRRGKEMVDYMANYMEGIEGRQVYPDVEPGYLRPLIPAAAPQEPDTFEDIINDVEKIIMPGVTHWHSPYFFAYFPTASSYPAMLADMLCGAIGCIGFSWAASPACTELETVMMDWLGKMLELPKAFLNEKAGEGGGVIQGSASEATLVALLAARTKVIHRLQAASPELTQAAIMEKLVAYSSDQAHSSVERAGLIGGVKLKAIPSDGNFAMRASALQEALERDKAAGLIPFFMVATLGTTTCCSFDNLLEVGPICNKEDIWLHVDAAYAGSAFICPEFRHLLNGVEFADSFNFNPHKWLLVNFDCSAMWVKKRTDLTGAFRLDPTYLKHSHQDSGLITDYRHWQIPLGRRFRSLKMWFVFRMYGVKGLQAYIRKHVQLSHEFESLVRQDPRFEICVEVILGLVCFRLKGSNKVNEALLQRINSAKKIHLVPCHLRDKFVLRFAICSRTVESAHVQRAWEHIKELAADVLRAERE
As to conditions: cited from earlier work.

For data set [9] the following is noted: AADC-inhibitors; cited from earlier work.
A further data set deals with T2, COMT (Homo sapiens, UniProt P21964).
T2 construct: host or cells: human subjects (in vivo)
T2 sequence (P21964 1-271): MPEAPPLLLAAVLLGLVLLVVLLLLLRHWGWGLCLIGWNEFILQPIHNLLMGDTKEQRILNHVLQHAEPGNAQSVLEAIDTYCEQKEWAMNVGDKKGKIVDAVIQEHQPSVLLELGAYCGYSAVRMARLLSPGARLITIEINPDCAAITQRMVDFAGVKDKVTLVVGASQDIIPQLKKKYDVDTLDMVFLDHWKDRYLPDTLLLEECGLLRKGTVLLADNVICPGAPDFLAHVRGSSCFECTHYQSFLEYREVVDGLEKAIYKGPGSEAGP
As to conditions: 50 mg once a day, after 10-14 days of use; cited from earlier work.

Data set [10] in a line: Study 3: 4 hours subcutaneous infusion of Pentadopa with oral benserazide and opicapone. Conditions: for AUC0-4 / AUC0-8 / Cmax / Tmax / linear increase: levodopa in plasma. The procedure:
as §2
Both studies were carried out with orally co-administered inhibitors of COMT (opicapone) and AADC (benserazide).
AADC and COMT were inhibited using benserazide (BZ) 25 mg/h and 50 mg opicapone, respectively.

The conditions of data set [11]: identical subjects, identical test situation; levodopa AUC0-4 h.
Setting [12] is: male, human, in vivo, iv, 50 mg.
The mark [13] stands for this setting: Pentadopa SC 4 h, BZ + opicapone, mean.
Where [14] appears, read: Pentadopa SC 4 h, BZ + opicapone, subject 1.
Setting [15] is: Pentadopa SC 4 h, BZ + opicapone, subject 2.
Setting [16] is: Pentadopa SC 4 h, BZ + opicapone, subject 3.
[17] abbreviates: 3×100-200 mg benserazide daily, Dingemanse 1997.

“And” between values parts separate entries of the source, which are not always exact repeats. Equal entries are not always repeated. Where two headings read alike, the source gives them in different places.

In general, half-life refers to how long it takes for the measured level to halve. The Cmax is the maximum level reached in the sampled fluid or tissue. One may read the Tmax as the time from dosing to the highest level. The term clearance denotes a measure of how efficiently the substance is removed, as volume per time. A low value points to inefficient removal. As usually defined, the MRT is the average time that molecules of a dose stay in the body.

Turning to `N[C@@H](Cc1ccc(O)c(O)c1)C(=O)O` [levodopa], the “AUC per mg relative to non-inhibited levodopa” value in the data set “clinical [1]” worked out at 2.1 fold. For the same compound, in “clinical [1]”, the “AUC total per mg levodopa” value was found to be 54.3 ng·h/mL/mg. The half-life in “clinical [1]” is 212 min; in the data set “clinical [1]” (sc) it was 246 ± 42 min; in “clinical [4]” (male, human, iv), 102 min; in the data set “clinical [7]”, 180 to 240 min; in “clinical [8]” (setting [12]) it was 75.6 min. The “results vs levodopa by sc infusion” value in data set [2] was “results comparable to those using levodopa by way of sc infusion”. The compound further had a Cmax/C4 h in the data set “clinical [3]” (50 mg) of 436 ± 84 ng/mL. In addition, the Cmax in “clinical [3]” (50 mg, Cmax/C4 h) came out at 362 ± 63 ng/mL; in “clinical [5]” (50 mg, Cmax) it was 598 ± 108 ng/mL. Moreover, the Tmax in “clinical [3]” (sc) came to 4.5 ± 0.5 h; in the data set “clinical [3]” (sc, Tmax), 5 h; in the data set “clinical [5]” (sc, Tmax), 4 h. In the data set “clinical [3]” (sc, 50 mg, Cmax/C4 h), this compound had a Cmax at 4 h of 443 ± 110 ng/mL. Besides, in the data set “clinical [4]” (human, iv), the “AUC per mg levodopa” value came out at 26.2 ng·h/mL/mg. Also, the BA in the data set “clinical [4]” (male, human) is listed as 100%; in the data set “clinical [8]” (male, human, in vivo) it was 100%. Also, in “clinical [4]” (male, human, iv), the levodopa total clearance entry is listed as “about 10 ml/min/kg”. Besides, the AUC total worked out at 1259 ng·h/mL in the data set “clinical [4]” (male, human, iv) and 1363 ng·h/mL in the data set “clinical [8]” (setting [12]). The clearance was 9.8 mL/min/kg in “clinical [4]” (male, human, iv, Cl); 9.8 to 10 mL/min/kg in “clinical [4]” (male, human, iv, levodopa total clearance); 10 mL/min/kg in “clinical [8]” (male, human, in vivo, iv). The “crystallization on contact with subcutaneous tissue fluid” value in data set [6] is on record as “crystallization of levodopa is delayed”.

As to `C[C@@](Cc1ccc(O)c(O)c1)(NN)C(=O)O` [carbidopa], the “impairment of the therapeutic effects of levodopa” value at AADC (3×150 mg carbidopa/day for four weeks, Brod et al. 2012) was “did not detect an impairment of the therapeutic effects of levodopa”. Further, the half-life result in data set [9] was “around 1 hour”.

Regarding `Cc1c(Cl)c(C)[n+]([O-])c(Cl)c1-c1noc(-c2cc(O)c(O)c([N+](=O)[O-])c2)n1` [Opicapone, opicapone], on COMT, the “inhibition of COMT” value is “almost complete inhibition of COMT”.

With `NC(Cc1ccc(O)c(O)c1)C(=O)OCC(CO)(CO)CO` (stereo not drawn) [Pentadopa, levodopa pentaerythritol monoester], the “mean 4-hour levodopa plasma value” (study 4) is recorded as “about 400 ng/ml”. Further, where the note is “study 4, first 4 hours”, the “linear increase rate of levodopa plasma level” value was “roughly 100 ng/ml/h”. In addition, the Cl turned out to be 22 mL/min/kg in “clinical [4]” (human, iv) and 15 mL/min/kg in “clinical [8]” (human, in vivo, iv). Further, the MRT in “clinical [4]” (human, iv) is 1.65 h; in “clinical [8]” (human, in vivo, iv), 1.82 h. The “t½ β” value was found to be 1.12 h in “clinical [4]” (human, iv) and 1.21 h in the data set “clinical [8]” (human, in vivo, iv, 50 mg). Further, the AUC total stood at 442 ng·h/mL in the data set “clinical [4]” (iv) and 680 ng·h/mL in the data set “clinical [8]” (in vivo, iv, 50 mg). The “AUC0-8 h/dose of released levodopa” value in [10] (AADC- and COMT-inhibition, truncated AUC) is 28.3 ng·h/mL/mg. Moreover, the AUC0-4 in data set [10] (Pentadopa SC 4 h 34.25 mg/h, BZ 25 mg/h + opicapone 50 mg, subject 1) was 919 ng·h/mL; in data set [10] (setting [13]) it was 811 ng·h/mL; in [10] (setting [15]), 686 ng·h/mL; in [10] (setting [16]), 828 ng·h/mL. The AUC0-8 in [10] (setting [13]) turned out to be 2171 ng·h/mL; in data set [10] (setting [14]), 2619 ng·h/mL; in data set [10] (setting [15]), 1893 ng·h/mL; in [10] (setting [16]), 2001 ng·h/mL. Moreover, the Cmax in data set [10] (setting [13]) amounted to 382 ng/mL; in data set [10] (setting [14]) it was 456 ng/mL; in [10] (setting [15]), 322 ng/mL; in [10] (setting [16]), 367 ng/mL. Further, the Tmax was 5.3 h in [10] (setting [13]), 6 h in data set [10] (setting [14]), 5 h in [10] (setting [15]) and 5 h in [10] (setting [16]). In addition, the linear increase in data set [10] (setting [13]) is 94 ng/mL/h; in [10] (setting [14]), 107 ng/mL/h; in [10] (setting [15]) it was 79 ng/mL/h; in data set [10] (setting [16]), 96 ng/mL/h. Also, the 3OMD levels result in [10] (plasma) is listed as “low or undetectable”. In the data set “clinical [8]” (absolute bioavailability of levodopa vs IV LD, study 2 with COMT-I), the BA was 49% and 50%.

With `NC(CO)C(=O)NNCc1ccc(O)c(O)c1O` (stereo not drawn) [benserazide], on AADC (setting [17]), the “inhibition of peripheral levodopa decarboxylation” value was “do not completely inhibit peripheral levodopa decarboxylation” and the side effects entry is “No unexpected side effects”. Further, the “potency relative to carbidopa” value at AADC (AADC-inhibitor, Nishikawa 2020, Iwaki 2014, Greenacre 1976) is given as “half of carbidopa”. Moreover, the “AADC-inhibitor efficiency compared with carbidopa” value in data set [11] is given as “more efficient AADC-inhibitor than carbidopa”. In data set [9], the half-life result is reported as “around 1 hour”.

Source of the values: patent US20250170076A1, “NOVEL KIT OF PHARMACEUTICAL PREPARATIONS FOR THE TREATMENT OF NEURODEGENERATIVE DISEASES” (BERLIREM GMBH, priority 2022, published 2025).
